These are literature values, as cited in PMC7060171, “Evaluation of Radiation dosimetry of ^99mTc-HYNIC-PSMA and imaging in prostate cancer” (Scientific Reports, 2020).

Settings in one series: not given
As to `O=C(O)CC[C@H](NC(=O)N[C@@H](CCCCNC(=O)c1ccc([18F])nc1)C(=O)O)C(=O)O` [^18F-DCFPyL], the Effective dose was 1.39E-02 mSv/MBq. With `O=C(O)CC[C@H](NC(=O)N[C@@H](CCC(=O)N[C@@H](CCCCN(Cc1nccn1CC(=O)N(CC(=O)O)CC(=O)O)Cc1nccn1CC(=O)N(CC(=O)O)CC(=O)O)C(=O)O)C(=O)O)C(=O)O.[99Tc+4].[CH-]=O.[CH-]=O.[CH-]=O.[Cl-]` [^99mTc-MIP-1404], the Effective dose is recorded as 8.8E-03 mSv/MBq. Take `O=C(O)CC[C@H](NC(=O)N[C@@H](CCCCNC(=O)[C@H](Cc1ccc2ccccc2c1)NC(=O)c1ccc(CNC(=O)[C@H](CCC(=O)O)NC(=O)[C@H](CCC(=O)O)NC(=O)c2ccc([18F])nc2)cc1)C(=O)O)C(=O)O` [^18F-PSMA-1007]: the Effective dose was 2.2E-02 mSv/MBq. For `O=C([O-])CN(CCN(CC(=O)[O-])Cc1cc(CCC(=O)NCCCCCC(=O)NCCCC[C@H](NC(=O)N[C@@H](CCC(=O)O)C(=O)O)C(=O)O)ccc1[O-])Cc1cc(CCC(=O)O)ccc1[O-].[68Ga+3].[OH3+]` [^68Ga-PSMA-11], the Effective dose is on record as 2.36E-02 mSv/MBq.

The series is the same for the next values; noted with them: conventional 99mTc-labelled radiopharmaceuticals used in SPECT/CT scans.
Consider `[C-]#[N+]CC(C)(C)OC.[C-]#[N+]CC(C)(C)OC.[C-]#[N+]CC(C)(C)OC.[C-]#[N+]CC(C)(C)OC.[C-]#[N+]CC(C)(C)OC.[C-]#[N+]CC(C)(C)OC.[Tc]` [MIBI], for which the Effective dose is reported as 7.83E-03 mSv/MBq. As to `O=P(O)(O)CP(=O)(O)O` (99mTc complex, metal not drawn) [MDP], the Effective dose is on record as 5.68E-03 mSv/MBq.
